Measured values from article PMC4274890 (Emerging Microbes & Infections, 2014).

Experiments:
SH5190 [1] = assay type: cell-based, A/Shanghai/5190/2013(H7N9)
SH5190 [2] = assay type: cell-based, A/Shanghai/5190/2013(H7N9); remark: listed apart in the source

| SMILES | times more potent than T-705 and ribavirin (SH5190 [1]) | plaque mean diameter (SH5190 [2]) [mm] |
| --- | --- | --- |
| CC(=O)Oc1ccccc1C(=O)Nc1ncc([N+](=O)[O-])s1 [NT-300, nitazoxanide] | over 25 times | – |
| CCC(CC)O[C@@H]1C=C(C(=O)O)C[C@H](N)[C@H]1NC(C)=O [Oseltamivir carboxylate] | – | < 0.1 |
